# Legend:
# Experiment in all cases: relative viability (nuclei count vs DMSO), 5 days (fraction); higher = more cells survive
# [1] = system: SK-MES-1
# Procedure, shortened: (§1)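 Five library-drug doses in √10 steps were combined with a fixed anchor-drug dose, or a single drug was given alone, by pin tool to lung cancer cell lines in 1536-well plates the day after seeding. Nuclei were stained and counted after 5 days. Relative viability is the nuclei count in treated wells over that in vehicle wells, taken as the median of duplicate plates.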
# [2] = system: NCI-H2009
# Procedure, shortened: as §1
# [3] = system: UMC-11
# Procedure, shortened: as §1
# [4] = system: NCI-H1793
# Procedure, shortened: as §1
# [5] = system: NCI-H2228
# Procedure, shortened: as §1
# [6] = system: NCI-H1395
# Procedure, shortened: as §1
# [7] = system: NCI-H647
# Procedure, shortened: as §1
# [8] = system: COR-L23
# Procedure, shortened: as §1
# [9] = system: NCI-H1792
# Procedure, shortened: as §1
# [10] = system: NCI-H1755
# Procedure, shortened: as §1
# [11] = system: NCI-H2170
# Procedure, shortened: as §1
smiles,measurement,setting,value
CC(=O)O[C@@]12CO[C@@H]1C[C@H](O)[C@@]1(C)C(=O)[C@H](O)C3=C(C)[C@@H](OC(=O)[C@H](O)[C@@H](NC(=O)OC(C)(C)C)c4ccccc4)C[C@@](O)([C@@H](OC(=O)c4ccccc4)[C@H]21)C3(C)C [Docetaxel] + CS(=O)(=O)CCNCc1ccc(-c2ccc3ncnc(Nc4ccc(OCc5cccc(F)c5)c(Cl)c4)c3c2)o1 [Lapatinib] (partner 2 µM),relative viability,[1]; first compound 0.0002 µM,0.437
same,relative viability,[1]; first compound 0.000632 µM,0.633
same,relative viability,[1]; first compound 0.002 µM,0.378
same,relative viability,[1]; first compound 0.02 µM,0.159
same,relative viability,[2]; first compound 0.0002 µM,0.965
same,relative viability,[2]; first compound 0.000632 µM,0.922
same,relative viability,[2]; first compound 0.002 µM,0.412
same,relative viability,[2]; first compound 0.006325 µM,0.195
same,relative viability,[2]; first compound 0.02 µM,0.12
same,relative viability,[3]; first compound 0.0002 µM,0.8
same,relative viability,[3]; first compound 0.000632 µM,0.831
same,relative viability,[3]; first compound 0.002 µM,0.249
same,relative viability,[3]; first compound 0.006325 µM,0.26
same,relative viability,[3]; first compound 0.02 µM,0.148
same,relative viability,[4]; first compound 0.0002 µM,0.569
same,relative viability,[4]; first compound 0.000632 µM,0.618
same,relative viability,[4]; first compound 0.006325 µM,0.315
same,relative viability,[4]; first compound 0.02 µM,0.216
same,relative viability,[5]; first compound 0.0002 µM,0.641
same,relative viability,[5]; first compound 0.000632 µM,0.184
same,relative viability,[5]; first compound 0.002 µM,0.255
same,relative viability,[5]; first compound 0.006325 µM,0.267
same,relative viability,[5]; first compound 0.02 µM,0.16
same,relative viability,[6]; first compound 0.0002 µM,0.992
same,relative viability,[6]; first compound 0.000632 µM,0.954
same,relative viability,[6]; first compound 0.002 µM,0.775
same,relative viability,[6]; first compound 0.006325 µM,0.368
same,relative viability,[6]; first compound 0.02 µM,0.268
same,relative viability,[7]; first compound 0.0002 µM,0.868
same,relative viability,[7]; first compound 0.000632 µM,0.217
same,relative viability,[7]; first compound 0.002 µM,0.119
same,relative viability,[7]; first compound 0.006325 µM,0.0918
same,relative viability,[7]; first compound 0.02 µM,0.0858
same,relative viability,[8]; first compound 0.0002 µM,0.993
same,relative viability,[8]; first compound 0.000632 µM,0.843
same,relative viability,[8]; first compound 0.002 µM,0.625
same,relative viability,[8]; first compound 0.006325 µM,0.14
same,relative viability,[8]; first compound 0.02 µM,0.107
same,relative viability,[9]; first compound 0.0002 µM,0.741
same,relative viability,[9]; first compound 0.000632 µM,0.85
same,relative viability,[9]; first compound 0.002 µM,0.522
same,relative viability,[9]; first compound 0.02 µM,0.0831
same,relative viability,[10]; first compound 0.0002 µM,0.99
same,relative viability,[10]; first compound 0.000632 µM,0.756
same,relative viability,[10]; first compound 0.002 µM,0.495
same,relative viability,[10]; first compound 0.006325 µM,0.448
same,relative viability,[10]; first compound 0.02 µM,0.258
same,relative viability,[11]; first compound 0.0002 µM,0.279
same,relative viability,[11]; first compound 0.000632 µM,0.265

# — the supplement of paper PMC10307832
